These results are taken from US8937091B2 (Japan Science and Technology Agency, priority 2009, dated 2015).

Each structure is given as a SMILES string.

Assay [1] deals with SOCE (store operated calcium entry) in CHO cells. In words: Assay of SOCE (store operated calcium entry)-inhibiting action. As to conditions: Cricetulus griseus, CHO, CHO cells, thapsigargin, read-out: SOCE level (percentage of inhibition); for inhibition at 10 µM: test compound 10 μmol; for inhibition at 30 µM: test compound 30 μmol; for inhibition at 100 µM: test compound 100 μmol. The format is cell-based, Chinese hamster. The method in brief:
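CHO cells in calcium-free BSS received compound, then 1 μM thapsigargin 2 min later to deplete stores; after 9 min, 2 mM calcium chloride (final) added. Percent inhibition of the rise in intracellular calcium determined at various compound concentrations.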

Assay [2] relates to IICR (IP3 induced calcium release) in CHO cells. Put plainly: Assay of IICR (IP3 induced calcium release)-inhibiting action. The format is cell-based, Chinese hamster. To be noted: Cricetulus griseus, CHO, CHO cells, 10 μM ATP, read-out: IICR level (percentage of inhibition); for inhibition at 10 µM: test compound 10 μmol; for inhibition at 30 µM: test compound 30 μmol; for inhibition at 100 µM: test compound 100 μmol. The method in brief: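 CHO cell medium replaced with calcium-containing BSS; compound added 1 min later, then 10 μM ATP after a further 2 min. Percent inhibition of the ATP-evoked rise in intracellular calcium determined at each compound concentration.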

One may read the inhibition as the drop in the measured response relative to a control, in per cent. With `O=C(CCNCCS)c1ccc(Br)s1` [Example 335, 2-(N-mercaptoethyl)aminoethyl-5-bromo-2-thienylketone], in assay [1], the inhibition at 10 µM came to 20%, the inhibition at 30 µM is 30% and the inhibition at 100 µM was found to be 50%. For the same compound, in assay [2], the inhibition at 10 µM stood at 10%, the inhibition at 30 µM came to 50% and the inhibition at 100 µM came to 70%.
Turning to `O=C(CCNc1ccccc1O)c1ccc(Br)s1` [Example 336, 2-(N-hydroxyphenyl)aminoethyl-5-bromo-2-thienylketone], in assay [1], the inhibition at 10 µM came to 10%, the inhibition at 30 µM is 0% and the inhibition at 100 µM is 0%. Moreover, in assay [2], the inhibition at 10 µM turned out to be 20%, the inhibition at 30 µM is 10% and the inhibition at 100 µM is 60%.
For the compound `CCCCN(CCC(=O)c1ccc(Br)s1)c1ccccc1` [Example 337, 2-(N-phenyl-N-n-butyl)aminoethyl-5-bromo-2-thienylketone], in assay [1], the inhibition at 10 µM came out at 20%, the inhibition at 30 µM worked out at 30% and the inhibition at 100 µM was found to be 40%. In assay [2], the inhibition at 10 µM stood at 50%, the inhibition at 30 µM stood at 20% and the inhibition at 100 µM was determined as 0%.
Take `CCCCN(CCCC)CCC(=O)c1ccc(Br)s1` [Example 338, 2-(N,N-di-n-butyl)aminoethyl-5-bromo-2-thienylketone]: in assay [1], the inhibition at 10 µM is 0%, the inhibition at 30 µM amounted to 0% and the inhibition at 100 µM was determined as 24%. In addition, in assay [2], the inhibition at 10 µM came out at 50%, the inhibition at 30 µM was 50% and the inhibition at 100 µM turned out to be 60%.
Take `CCC(C)N(CCC(=O)c1ccc(Br)s1)C(C)CC` (stereo not drawn) [Example 339, 2-(N,N-di-sec-butyl)aminoethyl-5-bromo-2-thienylketone]: in assay [1], the inhibition at 10 µM was 0%, the inhibition at 30 µM stood at 8% and the inhibition at 100 µM is 61%. In assay [2], the inhibition at 10 µM came out at 50%, the inhibition at 30 µM amounted to 80% and the inhibition at 100 µM came to 60%.
For the compound `O=C(CCNC(CO)c1ccccc1)c1ccc(Br)s1` (stereo not drawn) [Example 342, 2-(N-1-phenyl-2-hydroxyethyl)aminoethyl-5-bromo-2-thienylketone], in assay [1], the inhibition at 10 µM was found to be 0%, the inhibition at 30 µM came out at 0% and the inhibition at 100 µM came out at 34%. For the same compound, in assay [2], the inhibition at 10 µM was 0%, the inhibition at 30 µM was found to be 20% and the inhibition at 100 µM was 40%.
Regarding `NCC(O)CNCCC(=O)c1ccc(Br)s1` (stereo not drawn) [Example 343, 2-(N-2-hydroxy-3-aminopropyl)aminoethyl-5-bromo-2-thienylketone], in assay [1], the inhibition at 10 µM worked out at 0%, the inhibition at 30 µM worked out at 0% and the inhibition at 100 µM was found to be 26%. In assay [2], the inhibition at 10 µM worked out at 50%, the inhibition at 30 µM came to 70% and the inhibition at 100 µM came out at 80%.
For `NCCCCN(CCCN)CCC(=O)c1ccc(Br)s1` [Example 344, 2-(N-4-aminobutyl-N-3-aminopropyl)aminoethyl-5-bromo-2-thienylketone], in assay [1], the inhibition at 10 µM is 0%, the inhibition at 30 µM stood at 2% and the inhibition at 100 µM came to 6%. Moreover, in assay [2], the inhibition at 10 µM stood at 10%, the inhibition at 30 µM was determined as 40% and the inhibition at 100 µM was 30%.
Take `O=C(CCN1CCCC1O)c1ccc(Br)s1` (stereo not drawn) [Example 345, 2-(N-2-hydroxypyrrolidino)aminoethyl-5-bromo-2-thienylketone]: in assay [1], the inhibition at 10 µM worked out at 0%, the inhibition at 30 µM is 0% and the inhibition at 100 µM worked out at 10%. Besides, in assay [2], the inhibition at 10 µM was found to be 0%, the inhibition at 30 µM turned out to be 20% and the inhibition at 100 µM is 70%.
Regarding `O=C(CCNc1ccccc1S)c1ccc(Br)s1` [Example 347, 2-(N-2-mercaptophenyl)aminoethyl-5-bromo-2-thienylketone], in assay [1], the inhibition at 10 µM amounted to 0%, the inhibition at 30 µM turned out to be 0% and the inhibition at 100 µM worked out at 0%. Further, in assay [2], the inhibition at 10 µM stood at 0%, the inhibition at 30 µM turned out to be 20% and the inhibition at 100 µM worked out at 50%.
On to `O=C(CCN1CCCCC1)c1ccc(Br)s1` [Example 348, 2-piperidinoethyl-5-bromo-2-thienylketone], for which, in assay [1], the inhibition at 10 µM was found to be 0%, the inhibition at 30 µM is 0% and the inhibition at 100 µM was determined as 16%. Moreover, in assay [2], the inhibition at 10 µM stood at 20%, the inhibition at 30 µM came out at 0% and the inhibition at 100 µM came out at 20%.
Consider `O=C(CCNCC(O)c1ccccc1)c1ccc(Br)s1` (stereo not drawn) [Example 349, 2-(2-hydroxy-2-phenylethyl)aminoethyl-5-bromo-2-thienylketone], for which, in assay [1], the inhibition at 10 µM was 46%, the inhibition at 30 µM stood at 0% and the inhibition at 100 µM was determined as 0%. Also, in assay [2], the inhibition at 10 µM came out at 20%, the inhibition at 30 µM was found to be 0% and the inhibition at 100 µM was 50%.
Consider `O=C(CCN1CCCCC1CO)c1ccc(Br)s1` (stereo not drawn) [Example 350], for which, in assay [1], the inhibition at 10 µM was 10%, the inhibition at 30 µM is 2% and the inhibition at 100 µM stood at 3%. For the same compound, in assay [2], the inhibition at 10 µM is 60%, the inhibition at 30 µM came to 50% and the inhibition at 100 µM is 70%.
On to `O=C(CCNCCc1ccccc1)c1ccc(Br)s1` [Example 351, 2-phenethylaminoethyl-5-bromo-2-thienylketone], for which, in assay [1], the inhibition at 10 µM was 0%, the inhibition at 30 µM was found to be 9% and the inhibition at 100 µM was 32%. For the same compound, in assay [2], the inhibition at 10 µM stood at 30%, the inhibition at 30 µM was 0% and the inhibition at 100 µM was 0%.
For the compound `O=C(CCNCCCO)c1ccc(Br)s1` [Example 352, 2-(3-hydroxypropyl)aminoethyl-5-bromo-2-thienylketone], in assay [1], the inhibition at 10 µM was determined as 0%, the inhibition at 30 µM is 0% and the inhibition at 100 µM amounted to 34%. Besides, in assay [2], the inhibition at 10 µM turned out to be 30%, the inhibition at 30 µM was 0% and the inhibition at 100 µM was determined as 0%.
As to `O=C(CCNC(O)c1ccccc1)c1ccc(Br)s1` (stereo not drawn) [Example 353, 2-(1-hydroxy-1-phenylmethyl)aminoethyl-5-bromo-2-thienylketone], in assay [1], the inhibition at 10 µM worked out at 0%, the inhibition at 30 µM stood at 0% and the inhibition at 100 µM came out at 7%. In assay [2], the inhibition at 10 µM was 60%, the inhibition at 30 µM amounted to 0% and the inhibition at 100 µM was 20%.
With `O=C(CCNCCN(CCO)CCC(=O)c1ccc(Br)s1)c1ccc(Br)s1` [Example 354, 2-(N-5-bromothionylethylaminoethyl-N-hydroxyethyl)aminoethyl-5-bromo-2-thienylketone], in assay [1], the inhibition at 10 µM turned out to be 0%, the inhibition at 30 µM worked out at 10% and the inhibition at 100 µM was 10%. For the same compound, in assay [2], the inhibition at 10 µM is 0%, the inhibition at 30 µM came out at 0% and the inhibition at 100 µM was determined as 60%.
